Patent publication US20260224588A1, “BENZODIAZEPINONE-DERIVED INHIBITORS OF EGFR AND HER2” (The Research Foundation for the State University of New York, priority 2023, published 2026)
Like-named read-outs stand apart in the source and are kept apart here.

Experiments:
[1] = biological target: MEK3 (Homo sapiens, UniProt P46734); assay: KINOMEscan; type: binding; settings: 1 μM of compound 4; read-out: POC
[2] = biological target: DLK (Homo sapiens, UniProt Q12852); assay: KINOMEscan; type: binding; settings: 1 μM of compound 4; read-out: POC
[3] = biological target: T1, SgK110 (Homo sapiens, UniProt P0C264); assay: KINOMEscan; type: binding; settings: 1 μM of compound 4; read-out: POC
T1 construct: purchased Eurofins DiscoverX (KINOMEscan service)

[4] = biological target: PFTK1 (Homo sapiens, UniProt O94921); assay: KINOMEscan; type: binding; settings: 1 μM of compound 4; read-out: POC
[5] = biological target: CDK4 (Homo sapiens, UniProt P11802); assay: KINOMEscan; type: binding; settings: 1 μM of compound 4; read-out: POC
[6] = biological target: T2, ERK3 (Homo sapiens, UniProt Q16659); assay: KINOMEscan; type: binding; settings: 1 μM of compound 4; read-out: POC
T2 construct: purchased Eurofins DiscoverX Corporation

[7] = biological target: T3, HIPK3 (Homo sapiens, UniProt Q9H422); assay: KINOMEscan; type: binding; settings: 1 μM of compound 4; read-out: POC
T3 construct: purchased Eurofins DiscoverX Corporation

[8] = biological target: T4, PFCDPK1(P. falciparum) (Plasmodium falciparum, UniProt P62344); assay: KINOMEscan; type: binding; settings: 1 μM of compound 4; read-out: POC
T4 construct: purchased Eurofins DiscoverX Corporation (KINOMEscan)

[9] = biological target: PKAC-beta (Homo sapiens, UniProt P22694); assay: KINOMEscan; type: binding; settings: 1 μM of compound 4; read-out: POC
[10] = biological target: MUSK (Homo sapiens, UniProt O15146); assay: KINOMEscan; type: binding; settings: 1 μM of compound 4; read-out: POC
[11] = biological target: T5, HCK (Homo sapiens, UniProt P08631); assay: KINOMEscan; type: binding; settings: 1 μM of compound 4; read-out: POC
T5 construct: purchased Eurofins DiscoverX Corporation

[12] = biological target: T6, SGK (Homo sapiens, UniProt O00141); assay: KINOMEscan; type: binding; settings: 1 μM of compound 4; read-out: POC
T6 construct: purchased Eurofins DiscoverX (KINOMEscan service)

[13] = biological target: T7, RSK3(Kin.Dom.2-C-terminal) (Homo sapiens, UniProt Q15349); assay: KINOMEscan; type: binding; settings: 1 μM of compound 4; read-out: POC
T7 construct: RSK3(Kin.Dom.2-C-terminal); purchased Eurofins DiscoverX (KINOMEscan service)

[14] = biological target: EGFR(L858R) (Homo sapiens, UniProt P00533, L858R); assay: Time-dependent kinase inhibition assay (Sox-based substrate); type: biochemical; parameters: EGFR [L858R], cytoplasmic domain (669-1210), GST-tagged, Carna; purchased Carna 08-510
Method: Time-dependent Kinase Inhibition Assays. Biochemical assays were performed with commercially available EGFR WT, cytoplasmic domain (669-1210), GST-tagged, Carna (Cat #/Lot #: 08-115/21CBS-0127H), EGFR [T790M/L858R] and EGFR [L858R], cytoplasmic domain (669-1210), GST-tagged, Carna (Cat #/Lot #: 08-510/12CBS-0765M). […] BSA was not included in this experiment to prevent interference with irreversible inhibitor characterization via off-target binding. All reactions were run for 240 minutes at 30° C. Time-dependent fluorescence from the Sox-based substrate was monitored in PerkinElmer ProxiPlate-384 Plus, white shallow well microplates (Cat. #6008280) Biotek Synergy Neo 2 microplate reader with excitation (360 nm) and emission (485 nm) wavelengths. 2 was dosed between 0 and 10 μM in 24-point curves with 1.5-fold dilutions. Fluorescence, determined with identical reactions but lacking purified enzyme or crude cell lysate was subtracted from the total fluorescence signal for each time point, with both determined in duplicate, to obtain corrected relative fluorescence units (RFU). Corrected RFU values then were plotted vs. time and the reaction velocity for the first ~40 min (initial reaction rates) were determined from the slope using GraphPad Prism (La Jolla, CA) with units of RFU/min.

[15] = biological target: PIK3CA(Q546K) (Homo sapiens, UniProt P42336, Q546K); assay: KINOMEscan; type: binding; settings: 1 μM of compound 4; read-out: POC
[16] = biological target: T8, SRMS (Homo sapiens, UniProt Q9H3Y6); assay: KINOMEscan; type: binding; settings: 1 μM of compound 4; read-out: POC
T8 construct: purchased Eurofins DiscoverX (KINOMEscan service)

[17] = biological target: T9, p38-beta (Homo sapiens, UniProt Q15759); assay: KINOMEscan; type: binding; settings: 1 μM of compound 4; read-out: POC
T9 construct: purchased Eurofins DiscoverX Corporation (KINOMEscan)

[18] = test system: wildtype HER2 Ba/F3 cells; assay: Ba/F3 cellular antiproliferative experiments; type: cell-based; settings: Mus musculus, BaF3; Ba/F3, 72 hours; read-out: Anti-proliferative EC50 ± SE, HER2
Method: (§1) Ba/F3 Cellular Antiproliferative Experiments. The parental Ba/F3 cells was a generous gift from the laboratory of Dr. David Weinstock (in 2014), Dr. Pasi Jänne (2020) and was used to generate the wildtype EGFR, wildtype HER2, L858R, and L858R/T790M EGFR mutant Ba/F3 cells. These cells were previously characterized as described. All Ba/F3 cells were cultured in RPMI1640 media with 10% fetal bovine serum and 1% penicillin and streptomycin. All cell lines were tested negative for Mycoplasma using Mycoplasma Plus PCR Primer Set (Agilent) and were passaged and/or used for no longer than 4 weeks for all experiments. Assay reagents were purchased from MilliporeSigma (Cat #R7017-5G). Ba/F3 cells were plated and treated with increasing concentrations of inhibitors in triplicate for 72 hours. Compounds were dispensed using the Tecan D300e Digital Dispenser. Cellular growth or the inhibition of growth was assessed by resazurin viability assay. All experiments were repeated at least 3 times and values were reported as an average of n=3 with standard deviation.

[19] = test system: L858R/T790M EGFR mutant Ba/F3 cells; assay: Ba/F3 cellular antiproliferative experiments; type: cell-based; settings: Ba/F3, 72 hours, read-out: Anti-proliferative EC50 ± SE, LR/TM
Method: as §1

[20] = test system: L858R EGFR mutant Ba/F3 cells; assay: Ba/F3 cellular antiproliferative experiments; type: cell-based; settings: Mus musculus, BaF3, 72 h, Ba/F3, 72 hours; read-out: Anti-proliferative EC50 ± SE, LR
Method: as §1

[21] = biological target: DRAK2 (Homo sapiens, UniProt O94768); assay: KINOMEscan; type: binding; settings: 1 μM of compound 4; read-out: POC
[22] = biological target: BUB1 (Homo sapiens, UniProt O43683); assay: KINOMEscan; type: binding; settings: 1 μM of compound 4; read-out: POC
[23] = biological target: T10, YES (Homo sapiens, UniProt P07947); assay: KINOMEscan; type: binding; settings: 1 μM of compound 4; read-out: POC
T10 construct: purchased Eurofins DiscoverX
T10 sequence (P07947 whole entry): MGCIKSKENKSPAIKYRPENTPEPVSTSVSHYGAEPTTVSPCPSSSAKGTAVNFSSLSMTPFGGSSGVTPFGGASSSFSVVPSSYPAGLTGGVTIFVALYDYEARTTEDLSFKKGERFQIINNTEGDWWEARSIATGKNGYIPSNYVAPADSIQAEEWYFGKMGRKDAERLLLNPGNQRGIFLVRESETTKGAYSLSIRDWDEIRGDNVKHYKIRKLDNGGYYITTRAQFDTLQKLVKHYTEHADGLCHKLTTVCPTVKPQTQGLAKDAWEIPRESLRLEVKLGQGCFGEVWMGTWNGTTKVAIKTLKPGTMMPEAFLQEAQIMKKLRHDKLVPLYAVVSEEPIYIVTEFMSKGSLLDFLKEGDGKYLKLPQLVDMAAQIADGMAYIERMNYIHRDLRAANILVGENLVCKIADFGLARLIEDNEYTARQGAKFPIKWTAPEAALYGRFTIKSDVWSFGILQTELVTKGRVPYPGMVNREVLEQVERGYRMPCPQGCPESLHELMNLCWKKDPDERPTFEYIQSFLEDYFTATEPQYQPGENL

Chain of EGFR(L858R) (P00533 669-1210 L858R): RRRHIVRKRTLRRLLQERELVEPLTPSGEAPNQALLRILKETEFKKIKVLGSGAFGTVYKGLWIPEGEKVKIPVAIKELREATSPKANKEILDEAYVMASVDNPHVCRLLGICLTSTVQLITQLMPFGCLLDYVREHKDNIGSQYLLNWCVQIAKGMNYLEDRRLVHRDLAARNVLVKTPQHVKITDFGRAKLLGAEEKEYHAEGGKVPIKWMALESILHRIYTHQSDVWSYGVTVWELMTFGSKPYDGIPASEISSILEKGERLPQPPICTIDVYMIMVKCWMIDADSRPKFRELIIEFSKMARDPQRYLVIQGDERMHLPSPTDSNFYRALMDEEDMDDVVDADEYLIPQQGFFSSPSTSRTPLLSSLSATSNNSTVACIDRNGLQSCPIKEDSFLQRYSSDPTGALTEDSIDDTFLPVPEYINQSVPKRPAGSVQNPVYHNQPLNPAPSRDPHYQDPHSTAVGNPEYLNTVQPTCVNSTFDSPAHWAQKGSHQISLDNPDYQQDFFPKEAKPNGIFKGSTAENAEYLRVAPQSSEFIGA
T1 sequence (P0C264 whole entry): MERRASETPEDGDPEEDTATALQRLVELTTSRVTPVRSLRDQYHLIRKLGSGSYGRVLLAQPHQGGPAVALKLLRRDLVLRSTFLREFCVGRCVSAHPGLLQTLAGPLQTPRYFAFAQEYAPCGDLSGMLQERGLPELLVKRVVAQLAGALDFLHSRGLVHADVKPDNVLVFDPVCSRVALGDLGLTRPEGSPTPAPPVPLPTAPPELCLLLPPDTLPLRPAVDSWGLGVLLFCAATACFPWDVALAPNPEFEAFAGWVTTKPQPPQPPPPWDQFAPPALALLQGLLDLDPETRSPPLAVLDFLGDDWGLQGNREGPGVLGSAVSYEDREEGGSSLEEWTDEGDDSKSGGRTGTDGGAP
Chain of MUSK (O15146 24-869): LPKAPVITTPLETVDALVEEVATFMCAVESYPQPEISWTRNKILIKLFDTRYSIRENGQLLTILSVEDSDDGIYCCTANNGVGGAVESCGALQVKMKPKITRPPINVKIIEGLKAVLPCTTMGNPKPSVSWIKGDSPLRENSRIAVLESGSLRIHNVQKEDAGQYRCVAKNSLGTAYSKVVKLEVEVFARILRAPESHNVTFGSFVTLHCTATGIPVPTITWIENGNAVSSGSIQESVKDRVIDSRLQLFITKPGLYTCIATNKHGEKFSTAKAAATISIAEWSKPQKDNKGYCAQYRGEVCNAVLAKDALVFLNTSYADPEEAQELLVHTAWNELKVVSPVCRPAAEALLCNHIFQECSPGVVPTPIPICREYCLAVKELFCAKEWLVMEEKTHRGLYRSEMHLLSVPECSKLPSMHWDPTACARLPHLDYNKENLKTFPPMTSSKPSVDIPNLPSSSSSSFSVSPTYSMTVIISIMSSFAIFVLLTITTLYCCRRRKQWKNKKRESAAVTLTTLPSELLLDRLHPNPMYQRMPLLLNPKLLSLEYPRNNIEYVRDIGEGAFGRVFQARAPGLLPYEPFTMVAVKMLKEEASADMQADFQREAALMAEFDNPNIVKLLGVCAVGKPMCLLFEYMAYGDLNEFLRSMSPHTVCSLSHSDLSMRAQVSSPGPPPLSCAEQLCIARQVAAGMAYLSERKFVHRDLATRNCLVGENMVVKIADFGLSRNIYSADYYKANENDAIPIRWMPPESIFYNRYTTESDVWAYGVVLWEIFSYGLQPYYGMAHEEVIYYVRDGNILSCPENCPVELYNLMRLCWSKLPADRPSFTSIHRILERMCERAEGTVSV
Chain of MEK3 (P46734 whole entry): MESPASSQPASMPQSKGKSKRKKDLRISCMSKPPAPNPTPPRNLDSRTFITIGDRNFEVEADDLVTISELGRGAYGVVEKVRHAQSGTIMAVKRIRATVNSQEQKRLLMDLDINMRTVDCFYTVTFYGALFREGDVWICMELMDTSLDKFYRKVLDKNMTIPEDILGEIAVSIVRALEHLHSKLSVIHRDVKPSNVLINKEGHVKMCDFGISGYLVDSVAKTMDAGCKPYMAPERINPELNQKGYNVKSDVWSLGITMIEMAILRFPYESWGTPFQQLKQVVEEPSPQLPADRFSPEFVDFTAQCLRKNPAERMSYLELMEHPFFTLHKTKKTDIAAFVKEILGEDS
Chain of CDK4 (P11802 whole entry): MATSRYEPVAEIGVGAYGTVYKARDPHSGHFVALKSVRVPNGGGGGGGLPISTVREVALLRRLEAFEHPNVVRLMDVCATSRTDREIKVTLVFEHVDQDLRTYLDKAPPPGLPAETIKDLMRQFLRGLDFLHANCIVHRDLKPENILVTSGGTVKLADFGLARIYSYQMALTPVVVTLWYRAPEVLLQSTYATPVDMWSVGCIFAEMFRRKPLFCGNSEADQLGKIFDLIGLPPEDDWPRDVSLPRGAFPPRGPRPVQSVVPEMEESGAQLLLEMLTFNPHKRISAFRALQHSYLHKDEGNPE
Chain of DLK (Q12852 whole entry): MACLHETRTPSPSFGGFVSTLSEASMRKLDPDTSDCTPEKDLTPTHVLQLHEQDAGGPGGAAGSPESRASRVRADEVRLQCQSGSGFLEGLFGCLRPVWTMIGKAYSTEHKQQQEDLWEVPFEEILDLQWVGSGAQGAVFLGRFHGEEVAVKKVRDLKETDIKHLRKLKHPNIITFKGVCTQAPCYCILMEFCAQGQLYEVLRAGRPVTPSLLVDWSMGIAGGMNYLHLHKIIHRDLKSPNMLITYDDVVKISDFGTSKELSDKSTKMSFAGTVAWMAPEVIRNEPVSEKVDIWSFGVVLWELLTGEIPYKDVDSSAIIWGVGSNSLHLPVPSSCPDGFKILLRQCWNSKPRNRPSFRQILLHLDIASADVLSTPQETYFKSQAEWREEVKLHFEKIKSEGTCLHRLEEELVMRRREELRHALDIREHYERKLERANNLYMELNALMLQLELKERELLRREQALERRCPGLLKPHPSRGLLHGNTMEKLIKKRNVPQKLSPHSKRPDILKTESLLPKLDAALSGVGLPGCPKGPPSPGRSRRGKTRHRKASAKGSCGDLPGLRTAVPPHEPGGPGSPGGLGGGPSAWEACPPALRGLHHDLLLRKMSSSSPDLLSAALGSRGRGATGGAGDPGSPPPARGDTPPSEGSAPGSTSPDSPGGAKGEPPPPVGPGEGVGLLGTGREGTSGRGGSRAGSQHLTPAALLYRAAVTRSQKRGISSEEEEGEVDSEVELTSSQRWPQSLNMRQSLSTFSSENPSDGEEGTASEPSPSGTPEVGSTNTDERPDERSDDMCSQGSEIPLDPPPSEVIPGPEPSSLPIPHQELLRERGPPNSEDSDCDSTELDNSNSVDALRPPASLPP
T7 sequence (Q15349 415-672 limits assumed): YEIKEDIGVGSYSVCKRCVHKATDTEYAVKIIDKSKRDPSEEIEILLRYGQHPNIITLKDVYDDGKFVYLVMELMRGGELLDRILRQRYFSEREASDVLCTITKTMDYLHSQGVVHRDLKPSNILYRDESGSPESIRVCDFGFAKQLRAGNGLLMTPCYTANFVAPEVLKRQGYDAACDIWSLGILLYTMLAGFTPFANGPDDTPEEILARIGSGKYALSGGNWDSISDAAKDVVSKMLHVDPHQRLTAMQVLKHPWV
Chain of DRAK2 (O94768 whole entry): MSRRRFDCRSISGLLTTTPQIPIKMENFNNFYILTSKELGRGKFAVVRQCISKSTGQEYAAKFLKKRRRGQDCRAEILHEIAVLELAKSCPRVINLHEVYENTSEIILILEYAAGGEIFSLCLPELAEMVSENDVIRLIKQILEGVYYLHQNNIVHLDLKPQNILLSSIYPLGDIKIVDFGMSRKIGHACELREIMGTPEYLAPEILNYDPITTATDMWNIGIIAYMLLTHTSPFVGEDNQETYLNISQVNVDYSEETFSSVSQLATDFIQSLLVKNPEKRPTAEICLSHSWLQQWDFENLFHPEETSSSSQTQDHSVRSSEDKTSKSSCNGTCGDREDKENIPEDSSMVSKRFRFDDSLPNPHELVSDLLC
T8 sequence (Q9H3Y6 whole entry): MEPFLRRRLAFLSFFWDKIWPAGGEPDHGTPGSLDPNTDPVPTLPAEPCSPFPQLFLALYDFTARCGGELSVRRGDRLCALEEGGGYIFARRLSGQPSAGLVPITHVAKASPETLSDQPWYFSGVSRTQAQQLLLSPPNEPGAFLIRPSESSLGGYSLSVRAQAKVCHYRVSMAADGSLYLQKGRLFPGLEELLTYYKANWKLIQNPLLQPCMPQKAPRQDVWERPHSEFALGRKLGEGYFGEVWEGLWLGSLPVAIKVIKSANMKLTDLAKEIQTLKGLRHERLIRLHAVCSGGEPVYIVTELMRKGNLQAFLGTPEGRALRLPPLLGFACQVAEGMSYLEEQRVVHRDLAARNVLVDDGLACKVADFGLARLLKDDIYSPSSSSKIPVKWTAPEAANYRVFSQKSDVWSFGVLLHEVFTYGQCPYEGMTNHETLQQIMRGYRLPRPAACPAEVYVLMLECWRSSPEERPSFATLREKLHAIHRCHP

In the case of `C=CC(=O)Nc1ccc(OC)c(Nc2cc(-c3[nH]c(CC)nc3-c3cccc(NC(=O)c4cccc5c4NC(=O)c4ccccc4N5)c3)ccn2)c1` [Compound 4, N-(3-(5-(2-((5-Acrylamido-2-methoxyphenyl)amino)pyridin-4-yl)-2-ethyl-1H-imidazol-4-yl)phenyl)-11-oxo-10,11-dihydro-5H-dibenzo[b,e][1,4]diazepine-9-carboxamide], the remaining binding at 1 µM [1] is reported as 100%, the remaining binding at 1 µM [2] is reported as 100% and the remaining binding at 1 µM [3] is reported as 100%. It also gave a remaining binding at 1 µM [4] of 90%, a remaining binding at 1 µM [5] of 100% and a remaining binding at 1 µM [6] of 100%. It also gave a remaining binding at 1 µM [7] of 100%, a remaining binding at 1 µM [8] of 87% and a remaining binding at 1 µM [9] of 98%. It also gave a remaining binding at 1 µM [10] of 100%, a remaining binding at 1 µM [11] of 14% and a remaining binding at 1 µM [12] of 86%. For the same compound, the remaining binding at 1 µM [13] was 80%, the kinact [14] was 0.00867 s⁻¹ and the Ki ([14]; read-out: KI, LR) was 610 ± 30 nM. The kinact/KI ([14]; read-out: kinact/KI, LR) was 14100 ± 300 M⁻¹ s⁻¹, the remaining binding at 1 µM [15] was 100% and the remaining binding at 1 µM [16] was 61%. It also gave a remaining binding at 1 µM [17] of 59%, an EC50 [18] of 1930 ± 1010 nM and an EC50 [19] of 770 ± 390 nM. It also gave an EC50 ([19]; Mus musculus, BaF3, 72 h) of ~750 nM, an EC50 [20] of ~200 nM and a remaining binding at 1 µM [21] of 94%. The remaining binding at 1 µM [22] was 100% and the remaining binding at 1 µM [23] was 20%.
